According to PubChem BioAssay (NCI):
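All cell lines were grown in 96-well plates and treated with compound for 48 hours. TGI denotes the concentration required for complete inhibition of growth.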

What was measured:
Test in all cases: NCI-60 cell line screen, 48 h
786-0 renal = tested on: 786-0 renal
A498 renal = tested on: A498 renal
HL-60(TB) leukemia = tested on: HL-60(TB) leukemia
IGROV1 ovarian = tested on: IGROV1 ovarian
KM12 colon = tested on: KM12 colon
MALME-3M melanoma = tested on: MALME-3M melanoma
NCI-H23 lung = tested on: NCI-H23 lung
OVCAR-3 ovarian = tested on: OVCAR-3 ovarian
OVCAR-5 ovarian = tested on: OVCAR-5 ovarian
RPMI-8226 leukemia = tested on: RPMI-8226 leukemia

Compound | TGI (786-0 renal) | TGI (A498 renal) | TGI (HL-60(TB) leukemia) | TGI (IGROV1 ovarian) | TGI (KM12 colon) | TGI (MALME-3M melanoma) | TGI (NCI-H23 lung) | TGI (OVCAR-3 ovarian) | TGI (OVCAR-5 ovarian) | TGI (RPMI-8226 leukemia)
Cn1c(COC(=O)Nc2ccccc2)c(COC(=O)Nc2ccccc2)c2ccc3cc(Cl)c(Cl)cc3c21 | 12.6 µM | 4.25 µM | 10.4 µM | 23.5 µM | 23.4 µM | 6.59 µM | > 75 µM | 21.6 µM | 24.1 µM | 
O=C(O)c1ccc(OCc2nc3cc(C(F)(F)F)ccc3nc2-c2ccccc2)cc1 | > 100 µM | > 100 µM | > 100 µM | > 100 µM | > 100 µM |  | > 100 µM | > 100 µM | > 100 µM | 
O=c1c(C(c2ccc(Cl)cc2)c2c(O)c3ccccc3n(-c3ccccc3)c2=O)c(O)c2ccccc2n1-c1ccccc1 |  |  |  | > 100 µM | > 100 µM | 60.1 µM | > 100 µM | > 100 µM | > 100 µM | 69.4 µM
O=C1C(=Cc2ccccc2O)N=C(c2ccccc2)N1n1c(-c2ccccc2)nc2ccccc2c1=O | > 100 µM | 64.1 µM | 31.9 µM | > 100 µM | 98.4 µM | > 100 µM | 89.5 µM |  |  | > 100 µM
COc1cc2c3c(c1OC)C1(C=CC(=O)C=C1)C[C@H]3N(C)CC2 | > 100 µM |  |  | > 100 µM | > 100 µM | > 100 µM | > 100 µM | > 100 µM | > 100 µM | > 100 µM
Nc1ccc(C(=O)N2CCC[C@H]2CO)c(N)c1 | > 100 µM | > 100 µM | > 100 µM | > 100 µM | > 100 µM |  | > 100 µM | > 100 µM | > 100 µM | > 100 µM
CSc1sc2ccccc2[s+]1 | > 100 µM | > 100 µM | > 100 µM | > 100 µM | > 100 µM | > 100 µM |  |  | > 100 µM | > 100 µM
O=C1c2cccnc2-c2nccc3c2c1nc1cc(Br)ccc13 | 0.188 µM | 0.0659 µM |  | 0.31 µM | 0.338 µM | 0.374 µM | 0.313 µM | 0.2 µM | 0.527 µM | 0.448 µM
CC(=O)O[C@]12CCCCCC1C1(O)C(O)CCCC[C@H]12 (some centres not stated) | > 100 µM |  | > 100 µM |  | > 100 µM | > 100 µM | > 100 µM |  |  | > 100 µM
Nc1[nH]nc2nc3ccc(C(F)(F)F)cc3nc12 | 60.7 µM | > 100 µM |  | 72.2 µM | > 100 µM | > 100 µM | 57.2 µM |  | 99.2 µM | > 100 µM
CC(C)NC(=O)OCCN=c1c2ccccc2ccc2ccccc12 | > 100 µM |  | 43.9 µM | > 100 µM | > 100 µM | > 100 µM | > 100 µM | 95.6 µM | > 100 µM | 
CN(C)c1ccc(C2SCC(=O)N2c2ccc(Oc3ccc(Cl)cc3)c(Cl)c2)cc1 (configuration not stated) | 41.7 µM |  | 58.7 µM | 92.5 µM | 40.9 µM | 38.4 µM | 45.4 µM | 79.9 µM | 87.7 µM | 58.1 µM
